# Experiment: Biodistribution of the 99mTc(N) heterocomplexes in rats (organ uptake, heart accumulation, heart/lung and heart/liver ratios)
# Format: in vivo, female Sprague-Dawley rats
# Details: rats
# Experimental: The biodistribution was measured by using female Sprague-Dawley rats (SD rats) weighing 200 g to 250 g. Each of the ^99mTc(N) heterocomplexes purified in the manner described above was diluted with phosphate buffer (0.1 M, pH=7.4) to obtain a final solution having an ethanol content of 10%. After the SD rats were anesthetized with an intramuscular injection of a mixture of ketamine (80 mg/kg) and xilazine (19 mg/kg), the jugular vein of each rat was surgically exposed and 100 μL (300 to 370 kBq) of the solution containing each ^99mTc(N) heterocomplexes prepared in the manner described above was injected in the jugular vein. The rats (n=3) were sacrificed by cervical dislocation at different times post injection. The blood was withdrawn from the heart through a syringe and counted. It was assumed that the whole blood content was 6.5% of the total body weight. The organs were excised from the rats, washed with physiological saline, weighed, and counted in a NaI well counter.
# For comparison, Tables 19 and 20 show the results, obtained in the same manner as above, of measuring the biodistribution of (^99mTc) (MIBI) and (^99mTc) (Tf) which have been used as pharmaceuticals for diagnostic imaging for blood flow in myocardium.
# Tables 21 to 23 show data showing the variations with time of heart accumulation, heart/lung ratios and heart/liver ratios for the ^99mTc(N) heterocomplexes of the present invention.
smiles,measurement,setting,value
"[99Tc].[C-]#[N+]CC(C)(C)OC.[C-]#[N+]CC(C)(C)OC.[C-]#[N+]CC(C)(C)OC.[C-]#[N+]CC(C)(C)OC.[C-]#[N+]CC(C)(C)OC.[C-]#[N+]CC(C)(C)OC [(^99mTc) (MIBI), reference compound]","Biodistribution, Adrenal glands",0 min,2.80 ± 0.17 % ID/g
same,"Biodistribution, Blood",0 min,0.34 ± 0.07 % ID/g
same,"Biodistribution, Brain",0 min,0.26 ± 0.01 % ID/g
same,"Biodistribution, Heart",0 min,3.56 ± 0.22 % ID/g
same,"Biodistribution, Intestine",0 min,3.55 ± 0.37 % ID/g
same,"Biodistribution, Kidneys",0 min,9.23 ± 0.62 % ID/g
same,"Biodistribution, Liver",0 min,1.36 ± 0.12 % ID/g
same,"Biodistribution, Lungs",0 min,1.65 ± 0.08 % ID/g
same,"Biodistribution, Muscle",0 min,0.24 ± 0.04 % ID/g
same,"Biodistribution, Spleen",0 min,2.65 ± 0.26 % ID/g
same,"Biodistribution, Submaxillary glands",0 min,1.43 ± 0.41 % ID/g
same,"Biodistribution, Adrenal glands",2 min,1.60 ± 0.01 % ID/g
same,"Biodistribution, Blood",2 min,0.11 ± 0.01 % ID/g
same,"Biodistribution, Brain",2 min,0.04 ± 0.01 % ID/g
same,"Biodistribution, Heart",2 min,3.25 ± 0.17 % ID/g
same,"Biodistribution, Intestine",2 min,3.71 ± 0.01 % ID/g
same,"Biodistribution, Kidneys",2 min,10.12 ± 0.15 % ID/g
same,"Biodistribution, Liver",2 min,1.88 ± 0.08 % ID/g
same,"Biodistribution, Lungs",2 min,1.18 ± 0.13 % ID/g
same,"Biodistribution, Muscle",2 min,0.14 ± 0.00 % ID/g
same,"Biodistribution, Spleen",2 min,2.76 ± 0.66 % ID/g
same,"Biodistribution, Submaxillary glands",2 min,1.01 ± 0.23 % ID/g
same,"Biodistribution, Adrenal glands",10 min,3.28 ± 0.39 % ID/g
same,"Biodistribution, Blood",10 min,0.07 ± 0.01 % ID/g
same,"Biodistribution, Brain",10 min,0.05 ± 0.01 % ID/g
same,"Biodistribution, Heart",10 min,3.37 ± 0.45 % ID/g
same,"Biodistribution, Intestine",10 min,5.40 ± 0.33 % ID/g
same,"Biodistribution, Kidneys",10 min,11.45 ± 1.62 % ID/g
same,"Biodistribution, Liver",10 min,2.21 ± 0.27 % ID/g
same,"Biodistribution, Lungs",10 min,1.36 ± 0.31 % ID/g
same,"Biodistribution, Muscle",10 min,0.18 ± 0.01 % ID/g
same,"Biodistribution, Spleen",10 min,3.16 ± 0.62 % ID/g
same,"Biodistribution, Submaxillary glands",10 min,1.12 ± 0.12 % ID/g
same,"Biodistribution, Adrenal glands",20 min,3.05 ± 0.04 % ID/g
same,"Biodistribution, Blood",20 min,0.05 ± 0.01 % ID/g
same,"Biodistribution, Brain",20 min,0.04 ± 0.01 % ID/g
same,"Biodistribution, Heart",20 min,3.16 ± 0.22 % ID/g
same,"Biodistribution, Intestine",20 min,4.90 ± 0.23 % ID/g
same,"Biodistribution, Kidneys",20 min,8.14 ± 1.30 % ID/g
same,"Biodistribution, Liver",20 min,1.98 ± 0.60 % ID/g
same,"Biodistribution, Lungs",20 min,0.99 ± 0.11 % ID/g
same,"Biodistribution, Muscle",20 min,0.15 ± 0.05 % ID/g
same,"Biodistribution, Spleen",20 min,2.11 ± 0.18 % ID/g
same,"Biodistribution, Submaxillary glands",20 min,1.07 ± 0.04 % ID/g
same,"Biodistribution, Adrenal glands",30 min,3.49 ± 0.67 % ID/g
same,"Biodistribution, Blood",30 min,0.05 ± 0.01 % ID/g
same,"Biodistribution, Brain",30 min,0.04 ± 0.02 % ID/g
same,"Biodistribution, Heart",30 min,3.70 ± 0.04 % ID/g
same,"Biodistribution, Intestine",30 min,5.42 ± 0.05 % ID/g
same,"Biodistribution, Kidneys",30 min,6.46 ± 0.11 % ID/g
same,"Biodistribution, Liver",30 min,1.37 ± 0.22 % ID/g
same,"Biodistribution, Lungs",30 min,0.72 ± 0.01 % ID/g
same,"Biodistribution, Muscle",30 min,0.17 ± 0.05 % ID/g
same,"Biodistribution, Spleen",30 min,2.89 ± 0.29 % ID/g
same,"Biodistribution, Submaxillary glands",30 min,1.08 ± 0.09 % ID/g
same,"Biodistribution, Adrenal glands",60 min,3.50 ± 0.60 % ID/g
same,"Biodistribution, Blood",60 min,0.03 ± 0.00 % ID/g
same,"Biodistribution, Brain",60 min,0.04 ± 0.00 % ID/g
same,"Biodistribution, Heart",60 min,3.18 ± 0.17 % ID/g
same,"Biodistribution, Intestine",60 min,6.49 ± 1.43 % ID/g
same,"Biodistribution, Kidneys",60 min,4.42 ± 0.11 % ID/g
same,"Biodistribution, Liver",60 min,1.57 ± 0.11 % ID/g
same,"Biodistribution, Lungs",60 min,0.47 ± 0.24 % ID/g
same,"Biodistribution, Muscle",60 min,0.18 ± 0.01 % ID/g
same,"Biodistribution, Spleen",60 min,1.88 ± 0.15 % ID/g
same,"Biodistribution, Submaxillary glands",60 min,1.17 ± 0.05 % ID/g
same,"Biodistribution, Adrenal glands",120 min,2.43 ± 0.13 % ID/g
same,"Biodistribution, Blood",120 min,0.02 ± 0.00 % ID/g
same,"Biodistribution, Brain",120 min,0.03 ± 0.00 % ID/g
same,"Biodistribution, Heart",120 min,3.04 ± 0.14 % ID/g
same,"Biodistribution, Intestine",120 min,4.15 ± 1.02 % ID/g
same,"Biodistribution, Kidneys",120 min,3.49 ± 0.05 % ID/g
same,"Biodistribution, Liver",120 min,1.02 ± 0.23 % ID/g
same,"Biodistribution, Lungs",120 min,0.47 ± 0.06 % ID/g
same,"Biodistribution, Muscle",120 min,0.28 ± 0.05 % ID/g
same,"Biodistribution, Spleen",120 min,1.23 ± 0.18 % ID/g
same,"Biodistribution, Submaxillary glands",120 min,1.19 ± 0.05 % ID/g
CCOCCC[P]1(CCCOCC)CCN(CCOCC)CC[P](CCCOCC)(CCCOCC)[99Tc+]12(#[N])[S]C(N(CCOCC)CCOCC)=[S]2 [PNP6•DBODC],"Biodistribution, Adrenal glands",0 min,2.60 % dose/g
same,"Biodistribution, Blood",0 min,1.42 % dose/g
same,"Biodistribution, Brain",0 min,0.18 % dose/g
same,"Biodistribution, Heart",0 min,2.26 % dose/g
same,"Biodistribution, Intestine",0 min,2.91 % dose/g
same,"Biodistribution, Kidneys",0 min,5.56 % dose/g
same,"Biodistribution, Liver",0 min,3.59 % dose/g
same,"Biodistribution, Lungs",0 min,3.87 % dose/g
same,"Biodistribution, Muscle",0 min,0.06 % dose/g
same,"Biodistribution, Spleen",0 min,1.68 % dose/g
same,"Biodistribution, Submax. glands",0 min,1.17 % dose/g
same,"Biodistribution, Adrenal glands",2 min,3.49 % dose/g
same,"Biodistribution, Blood",2 min,0.17 % dose/g
same,"Biodistribution, Brain",2 min,0.03 % dose/g
same,"Biodistribution, Heart",2 min,1.241 % dose/g
same,"Biodistribution, Intestine",2 min,3.54 % dose/g
same,"Biodistribution, Kidneys",2 min,9.57 % dose/g
same,"Biodistribution, Liver",2 min,5.94 % dose/g
same,"Biodistribution, Lungs",2 min,1.25 % dose/g
same,"Biodistribution, Muscle",2 min,0.17 % dose/g
same,"Biodistribution, Spleen",2 min,3.85 % dose/g
same,"Biodistribution, Submax. glands",2 min,1.26 % dose/g
same,"Biodistribution, Adrenal glands",10 min,4.48 % dose/g
same,"Biodistribution, Blood",10 min,0.06 % dose/g
same,"Biodistribution, Brain",10 min,0.03 % dose/g
same,"Biodistribution, Heart",10 min,1.39 % dose/g
same,"Biodistribution, Intestine",10 min,6.21 % dose/g
same,"Biodistribution, Kidneys",10 min,9.80 % dose/g
same,"Biodistribution, Liver",10 min,7.71 % dose/g
same,"Biodistribution, Lungs",10 min,1.10 % dose/g
same,"Biodistribution, Muscle",10 min,0.16 % dose/g
same,"Biodistribution, Spleen",10 min,4.00 % dose/g
same,"Biodistribution, Submax. glands",10 min,1.27 % dose/g
same,"Biodistribution, Adrenal glands",20 min,3.19 % dose/g
same,"Biodistribution, Blood",20 min,0.03 % dose/g
same,"Biodistribution, Brain",20 min,0.03 % dose/g
same,"Biodistribution, Heart",20 min,1.18 % dose/g
same,"Biodistribution, Intestine",20 min,8.54 % dose/g
same,"Biodistribution, Kidneys",20 min,8.18 % dose/g
same,"Biodistribution, Liver",20 min,6.55 % dose/g
same,"Biodistribution, Lungs",20 min,0.80 % dose/g
same,"Biodistribution, Muscle",20 min,0.09 % dose/g
same,"Biodistribution, Spleen",20 min,3.13 % dose/g
same,"Biodistribution, Submax. glands",20 min,1.03 % dose/g
same,"Biodistribution, Adrenal glands",30 min,3.08 % dose/g
same,"Biodistribution, Blood",30 min,0.05 % dose/g
same,"Biodistribution, Brain",30 min,0.02 % dose/g
same,"Biodistribution, Heart",30 min,1.05 % dose/g
same,"Biodistribution, Intestine",30 min,7.75 % dose/g
same,"Biodistribution, Kidneys",30 min,7.52 % dose/g
same,"Biodistribution, Liver",30 min,4.66 % dose/g
same,"Biodistribution, Lungs",30 min,0.60 % dose/g
same,"Biodistribution, Muscle",30 min,0.11 % dose/g
same,"Biodistribution, Spleen",30 min,2.43 % dose/g
same,"Biodistribution, Submax. glands",30 min,1.08 % dose/g
same,"Biodistribution, Adrenal glands",60 min,3.49 % dose/g
same,"Biodistribution, Blood",60 min,0.02 % dose/g
same,"Biodistribution, Brain",60 min,0.01 % dose/g
same,"Biodistribution, Heart",60 min,1.10 % dose/g
same,"Biodistribution, Intestine",60 min,8.37 % dose/g
same,"Biodistribution, Kidneys",60 min,6.60 % dose/g
same,"Biodistribution, Liver",60 min,3.55 % dose/g
same,"Biodistribution, Lungs",60 min,0.48 % dose/g
same,"Biodistribution, Muscle",60 min,0.12 % dose/g
same,"Biodistribution, Spleen",60 min,2.64 % dose/g
same,"Biodistribution, Submax. glands",60 min,1.30 % dose/g
same,"Biodistribution, Adrenal glands",120 min,3.47 % dose/g
same,"Biodistribution, Blood",120 min,0.02 % dose/g
same,"Biodistribution, Brain",120 min,0.01 % dose/g
same,"Biodistribution, Heart",120 min,1.29 % dose/g
same,"Biodistribution, Intestine",120 min,9.70 % dose/g
same,"Biodistribution, Kidneys",120 min,8.83 % dose/g
same,"Biodistribution, Liver",120 min,2.55 % dose/g
same,"Biodistribution, Lungs",120 min,0.33 % dose/g
same,"Biodistribution, Muscle",120 min,0.14 % dose/g
same,"Biodistribution, Spleen",120 min,2.02 % dose/g
same,"Biodistribution, Submax. glands",120 min,1.36 % dose/g
CCOCCN1CC[P](CCCOC)(CCCOC)[99Tc+]2(#[N])([S]C(N(CCOCC)CCOCC)=[S]2)[P](CCCOC)(CCCOC)CC1 [[^99mTc(N) (PNP5) (DBODC)^+]],Heart/liver ratio in biodistribution,0 min,6.11
same,Heart/lung ratio in biodistribution,0 min,0.76
same,Heart/liver ratio in biodistribution,2 min,1.48
same,Heart/lung ratio in biodistribution,2 min,3.98
same,Heart/liver ratio in biodistribution,10 min,2.29
same,Heart/lung ratio in biodistribution,10 min,4.19
same,Heart/liver ratio in biodistribution,20 min,3.78
same,Heart/lung ratio in biodistribution,20 min,6.37
same,Heart/liver ratio in biodistribution,30 min,5.18
same,Heart/lung ratio in biodistribution,30 min,5.83
same,Heart/liver ratio in biodistribution,60 min,18.8
same,Heart/lung ratio in biodistribution,60 min,8.17
same,Heart/liver ratio in biodistribution,120 min,33.1
same,Heart/lung ratio in biodistribution,120 min,13.24
